# Test results taken from US4087613A, “1,3,5- Or 1,3,6-naphthalenetriyltris(sulfonylimino)aryl acids and salts” (American Cyanamid Company, priority 1977, dated 1978).
# Counter-ions that a name gives are not always drawn.
# Columns and labels:
# activated human C1 = target: T1, activated human C1 (Homo sapiens, UniProt P09871); assay: Test, Code 026 (C1 inhibitor): protection of human C2 from activated human C1 and C4; type: biochemical; conditions: serial two-fold dilution assay; higher well number indicates higher activity
# T1 construct: fluid-phase human C2 substrate in presence of C4
# T1 sequence (P09871 16-688): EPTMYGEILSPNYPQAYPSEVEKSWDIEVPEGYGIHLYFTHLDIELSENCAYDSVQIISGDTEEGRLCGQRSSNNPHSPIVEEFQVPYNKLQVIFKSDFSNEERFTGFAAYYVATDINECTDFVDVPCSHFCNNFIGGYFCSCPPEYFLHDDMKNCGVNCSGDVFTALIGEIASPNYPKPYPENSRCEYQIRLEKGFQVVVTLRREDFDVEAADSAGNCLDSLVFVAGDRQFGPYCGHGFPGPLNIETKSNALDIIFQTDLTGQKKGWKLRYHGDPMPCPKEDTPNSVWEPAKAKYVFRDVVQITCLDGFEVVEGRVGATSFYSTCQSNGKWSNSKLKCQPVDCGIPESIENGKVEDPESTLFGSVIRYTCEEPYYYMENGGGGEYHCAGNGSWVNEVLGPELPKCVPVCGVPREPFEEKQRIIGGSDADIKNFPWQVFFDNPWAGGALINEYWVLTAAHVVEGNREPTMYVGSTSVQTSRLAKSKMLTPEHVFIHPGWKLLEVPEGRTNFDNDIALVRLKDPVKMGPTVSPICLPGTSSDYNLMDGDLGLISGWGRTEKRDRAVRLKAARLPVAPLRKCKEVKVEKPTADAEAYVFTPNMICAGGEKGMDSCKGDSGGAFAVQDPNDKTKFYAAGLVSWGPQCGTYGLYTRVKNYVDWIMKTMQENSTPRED
# T1 sequence (P00736 18-705 partner): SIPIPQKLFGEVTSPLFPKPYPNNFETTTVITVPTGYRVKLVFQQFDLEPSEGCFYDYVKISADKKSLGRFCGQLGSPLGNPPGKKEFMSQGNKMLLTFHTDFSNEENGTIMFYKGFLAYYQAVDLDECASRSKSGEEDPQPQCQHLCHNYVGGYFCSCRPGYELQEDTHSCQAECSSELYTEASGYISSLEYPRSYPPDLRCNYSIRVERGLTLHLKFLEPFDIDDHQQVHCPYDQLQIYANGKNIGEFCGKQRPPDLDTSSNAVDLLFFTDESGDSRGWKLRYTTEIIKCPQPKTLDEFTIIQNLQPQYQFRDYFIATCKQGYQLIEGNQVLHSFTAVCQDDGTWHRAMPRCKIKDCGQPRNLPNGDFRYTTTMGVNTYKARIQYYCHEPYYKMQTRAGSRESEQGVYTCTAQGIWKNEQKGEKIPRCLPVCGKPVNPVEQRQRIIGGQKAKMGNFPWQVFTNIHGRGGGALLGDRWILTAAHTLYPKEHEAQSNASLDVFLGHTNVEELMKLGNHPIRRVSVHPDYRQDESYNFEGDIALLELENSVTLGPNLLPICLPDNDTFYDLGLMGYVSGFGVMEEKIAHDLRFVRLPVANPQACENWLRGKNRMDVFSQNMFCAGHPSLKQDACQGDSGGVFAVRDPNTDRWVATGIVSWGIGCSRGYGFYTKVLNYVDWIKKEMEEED
# T1 sequence (P02745 23-245 partner): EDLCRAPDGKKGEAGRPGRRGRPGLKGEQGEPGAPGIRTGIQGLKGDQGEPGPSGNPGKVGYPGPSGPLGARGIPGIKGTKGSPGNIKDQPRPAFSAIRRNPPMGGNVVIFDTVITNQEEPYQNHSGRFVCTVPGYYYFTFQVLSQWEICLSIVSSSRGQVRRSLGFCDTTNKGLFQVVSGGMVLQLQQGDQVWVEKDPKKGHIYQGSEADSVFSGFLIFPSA
# T1 sequence (P02746 28-253 partner): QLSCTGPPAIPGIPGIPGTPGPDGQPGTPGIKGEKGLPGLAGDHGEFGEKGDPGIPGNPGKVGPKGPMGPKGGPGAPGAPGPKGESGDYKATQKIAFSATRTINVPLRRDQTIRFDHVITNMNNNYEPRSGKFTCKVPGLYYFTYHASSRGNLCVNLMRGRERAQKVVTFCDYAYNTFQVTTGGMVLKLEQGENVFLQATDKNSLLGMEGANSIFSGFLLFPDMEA
# T1 sequence (P02747 29-245 partner): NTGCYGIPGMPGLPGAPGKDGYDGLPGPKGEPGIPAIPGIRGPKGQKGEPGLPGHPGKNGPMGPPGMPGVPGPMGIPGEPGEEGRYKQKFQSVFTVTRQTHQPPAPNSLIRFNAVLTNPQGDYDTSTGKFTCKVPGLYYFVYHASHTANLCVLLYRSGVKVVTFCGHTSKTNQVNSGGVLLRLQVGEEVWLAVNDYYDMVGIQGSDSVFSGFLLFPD
# Excerpt: (§1) An active inhibitor protects C2 from C1 and C4; (ii) Test, Code 035 (C3-C9 inhibitor) -- This test determines the ability of the late components of human complement (C3-C9) to lyse EAC 142 in the presence of appropriate dilutions of the test compound. An active inhibitor protects EAC 142 from lysis by human C3-C9; (iii) Test, Code 036 (C-Shunt inhibitor) -- In this test human erythrocytes rendered fragile are lysed in autologous serum via the shunt pathway activated by cobra venom factor in the presence of appropriate dilutions of the test compound. Inhibition of the shunt pathway results in failure of lysis; (iv) Forssman Vasculitis Test -- Here, the well known complement dependent lesion, Forssman vasculitis, is produced in guinea pigs by intradermal injection of rabbit anti-Forssman antiserum. The lesion is measured in terms of diameter, edema and hemorrhage and the extent to which a combined index of these is inhibited by prior intraperitoneal injection of the test compound at 200 mg/kg is then reported, unless otherwise stated; (v) Forssman Shock Test -- Lethal shock is produced in guinea pigs by an i.v. injection of anti-Forssman antiserum and the harmonic mean death time of treated guinea pigs is compared with that of simultaneous controls; (vi) Complement Level Reduction Test -- In this test, the above dosed guinea pigs, or others, are bled for serum and the complement level is determined in undiluted serum by the capillary tube method of U.S. Pat. No. 3,876,376 and compared to undosed control guinea pigs; and (vii) Cap 50 Test -- Here, appropriate amounts of the test compound are added to a pool of guinea pig serum in vitro, after which the undiluted serum capillary tube assay referred to above is run. The concentration of compound inhibiting 50% is reported.
# (§2) **Activity in wells a serial dilution assay. Higher well number indicates
# (§3) higher activity. The serial dilutions are two-fold.
# shunt pathway = assay: Test, Code 036 (C-Shunt inhibitor): lysis of human erythrocytes via the shunt pathway activated by cobra venom factor; type: biochemical; set-up: key: Negative; conditions: serial two-fold dilution assay; higher well number indicates higher activity
# Excerpt: as §1, §2, §3
# [1] = tested on: late components of human complement (C3-C9); assay: Test, Code 035 (C3-C9 inhibitor): lysis of EAC 142 by late components of human complement; type: biochemical; set-up: key: Negative; conditions: serial two-fold dilution assay; higher well number indicates higher activity
# Excerpt: as §1, §2, §3
# [2] = tested on: hereditary angioneurotic edema; conditions: The New England Journal of Medicine, 286, 808-812 (1972); cited from earlier work
# complement system = conditions: literature report; cited from earlier work
# whole complement = assay: Complement Level Reduction Test: whole complement in serum of dosed guinea pigs, capillary tube assay; type: in vivo; conditions: 200 mg/kg
# Excerpt: as §1
# With reference to Table I, guinea pigs weighing about 300 g were dosed intravenously (i.v.) or intraperitoneally (i.p.) with 200 mg/kg of the test compound dissolved in saline and adjusted to pH 7-8. […] The serum was tested for whole complement using the capillary tube assay. Percent inhibition was calculated by comparison with simultaneous controls. The results appear in Table I together with results of tests, code 026, 035, 036, Cap 50, % inhibition and Forssman shock.
Compound,C1 026 Wells (activated human C1),Shunt Inhibition 036 Wells (shunt pathway),C-Late 035 Wells [1],use in the treatment of hereditary angioneurotic edema [2],anticomplementary / complement inhibiting effect (complement system),"In Vivo Activity (Guinea Pig) % Inhibition, Intraperitoneal, 30 minutes (whole complement) [%]","In Vivo Activity (Guinea Pig) % Inhibition, Intraperitoneal, 60 minutes (whole complement) [%]","In Vivo Activity (Guinea Pig) % Inhibition, Intraperitoneal, 120 minutes (whole complement) [%]"
"CN(c1cc(C(=O)O)cc(C(=O)O)c1)S(=O)(=O)c1ccc2c(S(=O)(=O)N(C)c3cc(C(=O)O)cc(C(=O)O)c3)cc(S(=O)(=O)N(C)c3cc(C(=O)O)cc(C(=O)O)c3)cc2c1 [5,5',5""-[1,3,6-Naphthalenetriyltris(sulfonylmethylimino)]triisophthalic acid hexasodium salt]",+3 wells,N,N,–,–,–,–,–
"O=C(O)c1cc(NS(=O)(=O)c2ccc3c(S(=O)(=O)Nc4ccc(O)c(C(=O)O)c4)cc(S(=O)(=O)Nc4ccc(O)c(C(=O)O)c4)cc3c2)ccc1O [3,3',3""-[1,3,6-Naphthalenetriyltris(sulfonylimino)]tris[6-hydroxybenzoic acid]]",+1 wells,N,N,–,–,–,–,–
"8-(3-benzamido-4-methylbenzamido)naphthalene-1,3,5-trisulfonic acid [Suramin]",–,–,–,used with success,competitive inhibitor of the complement system,–,–,–
"O=C([O-])c1cc(NS(=O)(=O)c2ccc3c(S(=O)(=O)Nc4cc(C(=O)[O-])cc(C(=O)[O-])c4)cc(S(=O)(=O)Nc4cc(C(=O)[O-])cc(C(=O)[O-])c4)cc3c2)cc(C(=O)[O-])c1.[Na+].[Na+].[Na+].[Na+].[Na+].[Na+] [5,5',5""-[1,3,6-Naphthalenetriyltris(sulfonylimino)]triisophthalic acid hexasodium salt]",–,–,N,–,–,-67,-79,-84
"O=C(O)c1cc(NS(=O)(=O)c2ccc3c(S(=O)(=O)Nc4cc(C(=O)O)cc(C(=O)O)c4)cc(S(=O)(=O)Nc4cc(C(=O)O)cc(C(=O)O)c4)cc3c2)cc(C(=O)O)c1 [5,5',5""-[1,3,6-Naphthalenetriyltris(sulfonyliminol)]triisophthalic acid]",+6 wells,+2 wells,N,–,–,-84,-88,-96
heparin,–,–,–,–,anticomplementary effect,–,–,–
"Nc1ccc2cc(S(=O)(=O)O)cc(O)c2c1N=Nc1ccc(NC(=O)Nc2ccc(N=Nc3c(N)ccc4cc(S(=O)(=O)O)cc(O)c34)c(S(=O)(=O)O)c2)cc1S(=O)(=O)O [chlorazol fast pink, 3,3'-ureylenebis-[6-(2-amino-8-hydroxy-6-sulfo-1-naphthylazo)]benzenesulfonic acid, tetrasodium salt]",–,–,–,–,anticomplementary effect,–,–,–
"O=C([O-])c1ccc(NS(=O)(=O)c2ccc3c(S(=O)(=O)Nc4ccc(C(=O)[O-])cc4)cc(S(=O)(=O)Nc4ccc(C(=O)[O-])cc4)cc3c2)cc1.[Na+].[Na+].[Na+] [4,4',4""-[1,3,6-Naphthalenetriyltris(sulfonylimino)]tribenzoic acid trisodium salt]",–,N,N,–,–,–,–,–
"O=C([O-])c1cc(NS(=O)(=O)c2ccc3c(S(=O)(=O)Nc4cc(C(=O)[O-])c(C(=O)[O-])c(C(=O)[O-])c4)cc(S(=O)(=O)Nc4cc(C(=O)[O-])c(C(=O)[O-])c(C(=O)[O-])c4)cc3c2)cc(C(=O)[O-])c1C(=O)[O-].[Na+].[Na+].[Na+].[Na+].[Na+].[Na+].[Na+].[Na+].[Na+] [5,5',5""-[1,3,6-Naphthalenetriyltris(sulfonylimino)]tri-1,2,3-benzenetricarboxylic acid nonasodium salt]",+8 wells,–,–,–,–,-63,-71,-71
"O=C([O-])c1cccc(NS(=O)(=O)c2ccc3c(S(=O)(=O)Nc4cccc(C(=O)[O-])c4)cc(S(=O)(=O)Nc4cccc(C(=O)[O-])c4)cc3c2)c1.[Na+].[Na+].[Na+] [3,3',3""-[1,3,6-Naphthalenetriyltris(sulfonylimino)]tribenzoic acid trisodium salt]",+3 wells,N,N,–,–,–,–,–
NC[C@H]1CC[C@H](C(=O)O)CC1 [tranexamic acid],–,–,–,used with success,–,–,–,–
NCCCCCC(=O)O [epsilon-aminocaproic acid],–,–,–,used with success,–,–,–,–
"O=C(O)c1cc(NS(=O)(=O)c2ccc3c(S(=O)(=O)Nc4cc(C(=O)O)c(O)c(C(=O)O)c4)cc(S(=O)(=O)Nc4cc(C(=O)O)c(O)c(C(=O)O)c4)cc3c2)cc(C(=O)O)c1O [5,5',5""-[1,3,6-Naphthalenetriyltris(sulfonylimino)]-tris[2-hydroxyisophthalic acid]]",+5 wells,+4 wells,+1 wells,–,–,-69,-59,-58
